Source: PMC7978038 (Molecular pharmaceutics, 2019)
Read-outs that look alike come from different tables or passages of the source.

Tests used:
[1] = mice, cited from earlier work
[2] = in vivo; conditions: male, beagle, dog, po, 1 mg/kg
[3] = oral 2-PMPA; cited from earlier work
[4] = mice, 10 mg/kg 2-PMPA equivalent dose, mean ± SEM, n = 3
[5] = test system: 100 different transporters, enzymes, and receptors, including several glutamate targets; conditions: selectivity; cited from earlier work
[6] = in vivo; conditions: male, CD-1, mouse, iv, 10 mg/kg
[7] = mouse, microsomes
[8] = human, microsomes
[9] = dog, microsomes

Row | Intestinal microsomal stability, intact prodrug level at the end of 1 h incubation [7] | Intestinal microsomal stability, intact prodrug level at the end of 1 h incubation [8] | Intestinal microsomal stability, intact prodrug level at the end of 1 h incubation [9] | Compound | 2-PMPA plasma AUC0−t ([1]; oral 2-PMPA, ref our previously published manuscript) | oral bioavailability ([1]; oral) | AUC(0-t) [2] | Cmax [2] | Tmax [2] | oral bioavailability (F) [3] | 2-PMPA plasma concentration at 30 min post oral administration [4] | activity at 100 different transporters, enzymes, and receptors [5] | 2-PMPA brain AUC0−t (mice, IV, 10 mg/kg) | 2-PMPA brain Cmax (mice, IV, 10 mg/kg) | AUC(0-t) [6] | Cmax [6] | Kp [6] | metabolites (including 2 and 3) detected in plasma (mouse, in vivo, po) | fold enhancement in 2-PMPA systemic availability versus orally administered 2-PMPA ([1]; oral)
1 |  |  |  | O=C(O)CCC(CP(=O)(O)O)C(=O)O (stereo not shown) [Prodrug 2-PMPA, 2-(Phosphonomethyl)-pentanedioic acid] | 0.65 ± 0.13 µM·h | < 1% | 1.44 µM·h | 0.4 µM | 2 h | < 1% | 0.25 ± 0.02 nmol/mL | no activity | 1.6 ± 0.2 nmol·h/g | 1.2 ± 0.1 nmol/g | 104 ± 19 µM·h | 109 ± 9.5 µM | 0.015 |  | 
2 | did not show any intact prodrug level | did not show any intact prodrug level | did not show any intact prodrug level | Cc1oc(=O)oc1COC(=O)CCC(CP(=O)(OCc1oc(=O)oc1C)OCc1oc(=O)oc1C)C(=O)OCc1oc(=O)oc1C (stereo not shown) [Prodrug 4] |  |  |  |  |  |  |  |  |  |  |  |  |  | No metabolites, including 2 and 3, were detected | 
3 |  |  |  | CC(C)OC(=O)OCOC(=O)C(CCC(=O)O)CP(=O)(OCOC(=O)OC(C)C)OCOC(=O)OC(C)C (stereo not shown) [Prodrug 21b] |  | 11.5% |  |  |  |  |  |  |  |  |  |  |  |  | 20 fold
